In ChEMBL document CHEMBL1201862, “PubChem BioAssay data set” (2004):
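Test compounds were applied to cells in 96-well plates for 48 hours at 5 doses. GI50 marks 50% less growth.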 Calls of active or inactive are those of the source. Rule as the data show it: active = GI50 up to about 1.1 µM and inactive = higher.

Columns and labels:
Test in all cases: growth of human tumour cells (NCI), 48 h
A498 = system: A498
A549 = system: A549
BT-549 = system: BT-549
EKVX = system: EKVX
KM12 = system: KM12
M14 = system: M14
MCF7 = system: MCF7
MDA-MB-435 = system: MDA-MB-435
MOLT-4 = system: MOLT-4
NCI-H23 = system: NCI-H23
OVCAR-4 = system: OVCAR-4
SF-268 = system: SF-268
SK-OV-3 = system: SK-OV-3
SNB-19 = system: SNB-19
SNB-75 = system: SNB-75
UACC-62 = system: UACC-62
UO-31 = system: UO-31
OVCAR-8 = system: OVCAR-8
HL-60 = system: HL-60
T47D = system: T47D

Row | SMILES | GI50 (A498) | GI50 (A549) | GI50 (BT-549) | GI50 (EKVX) | GI50 (KM12) | GI50 (M14) | GI50 (MCF7) | GI50 (MDA-MB-435) | GI50 (MOLT-4) | GI50 (NCI-H23) | GI50 (OVCAR-4) | GI50 (SF-268) | GI50 (SK-OV-3) | GI50 (SNB-19) | GI50 (SNB-75) | GI50 (UACC-62) | GI50 (UO-31) | GI50 (OVCAR-8) | GI50 (HL-60) | GI50 (T47D)
1 | S=c1oc(CCCCCCCCc2nn(CNc3ccc(Cl)cc3)c(=S)o2)nn1CNc1ccc(Cl)cc1 | > 100 µM (inactive) | > 100 µM (inactive) | > 100 µM (inactive) | > 100 µM (inactive) | 35.8 µM (inactive) | 12 µM (inactive) | > 100 µM (inactive) | 10.4 µM (inactive) | > 100 µM (inactive) | 99.3 µM (inactive) | > 100 µM (inactive) | > 100 µM (inactive) | > 100 µM (inactive) | > 100 µM (inactive) | > 100 µM (inactive) | 3.88 µM (inactive) | 97.3 µM (inactive) |  |  | 
2 | CC(C)(C)OC(=O)NNC(=O)C1Cc2ccccc2OC1=O (configuration not stated) |  | > 100 µM (inactive) | > 100 µM (inactive) | > 100 µM (inactive) | > 100 µM (inactive) | > 100 µM (inactive) |  | > 100 µM (inactive) | > 100 µM (inactive) | > 100 µM (inactive) |  | > 100 µM (inactive) | > 100 µM (inactive) | > 100 µM (inactive) |  | > 100 µM (inactive) | > 100 µM (inactive) | > 100 µM (inactive) |  | 
3 | Oc1ccc(Cl)cc1/N=N\c1c(O)ccc2ccccc12 |  | > 100 µM (inactive) | > 100 µM (inactive) | > 100 µM (inactive) | > 100 µM (inactive) | > 100 µM (inactive) |  | > 100 µM (inactive) | 35 µM (inactive) | > 100 µM (inactive) | > 100 µM (inactive) | > 100 µM (inactive) | > 100 µM (inactive) | > 100 µM (inactive) | > 100 µM (inactive) | > 100 µM (inactive) | > 100 µM (inactive) | > 100 µM (inactive) | 78.9 µM (inactive) | 
4 | COc1cccc2cc(C(=O)Nc3ccccc3)c(=N)oc12 | > 100 µM (inactive) | > 100 µM (inactive) | > 100 µM (inactive) | > 100 µM (inactive) | > 29.6 µM (inactive) | > 100 µM (inactive) | 5.93 µM (inactive) | > 100 µM (inactive) | > 100 µM (inactive) | > 69.2 µM (inactive) | > 100 µM (inactive) | > 85.9 µM (inactive) | > 64 µM (inactive) | > 75.9 µM (inactive) | 16.7 µM (inactive) | 62.4 µM (inactive) | > 48.1 µM (inactive) | > 46.6 µM (inactive) |  | 6.01 µM (inactive)
5 | Cc1ccc([N+](=O)[O-])c2c(NCC(O)CO)ccnc12 (configuration not stated) |  | 25.4 µM (inactive) | 47 µM (inactive) | 19.8 µM (inactive) | 32.2 µM (inactive) | 51.9 µM (inactive) | 32.1 µM (inactive) | 71.6 µM (inactive) | > 100 µM (inactive) | 41.8 µM (inactive) | 52.8 µM (inactive) | 60.4 µM (inactive) | > 100 µM (inactive) | 90.8 µM (inactive) | > 100 µM (inactive) | 30.3 µM (inactive) | 74.3 µM (inactive) | 47 µM (inactive) | 32.7 µM (inactive) | 49.7 µM (inactive)
6 | CCOC(=O)CC1(Cc2ccc(OCc3ccccc3)cc2)C(=O)OC(c2ccccc2)N1C(=O)c1ccccc1 (configuration not stated) |  | > 100 µM (inactive) | > 100 µM (inactive) | > 100 µM (inactive) | > 100 µM (inactive) | > 100 µM (inactive) | > 100 µM (inactive) | > 100 µM (inactive) | > 100 µM (inactive) | > 100 µM (inactive) | > 100 µM (inactive) | > 100 µM (inactive) | > 100 µM (inactive) | > 100 µM (inactive) |  | > 100 µM (inactive) | 45.5 µM (inactive) | > 100 µM (inactive) | > 100 µM (inactive) | > 100 µM (inactive)
7 | NC(=O)NCCCC(NC(=O)OCCCCn1ccc(=O)[nH]c1=O)C(=O)O (configuration not stated) |  | > 100 µM (inactive) | > 100 µM (inactive) | > 100 µM (inactive) | > 100 µM (inactive) | > 100 µM (inactive) | > 100 µM (inactive) | > 100 µM (inactive) | > 100 µM (inactive) | > 100 µM (inactive) | > 100 µM (inactive) | > 100 µM (inactive) | > 100 µM (inactive) | > 100 µM (inactive) | > 100 µM (inactive) | > 100 µM (inactive) | > 100 µM (inactive) | > 100 µM (inactive) | > 100 µM (inactive) | > 100 µM (inactive)
8 | CSCCCN(CCCSC)CCCSC |  | > 100 µM (inactive) | > 100 µM (inactive) | > 100 µM (inactive) | > 100 µM (inactive) | > 100 µM (inactive) | > 100 µM (inactive) | 55.6 µM (inactive) | 24.2 µM (inactive) | > 100 µM (inactive) | > 100 µM (inactive) | > 100 µM (inactive) | > 100 µM (inactive) | > 100 µM (inactive) | 48.5 µM (inactive) | 97.5 µM (inactive) | > 100 µM (inactive) | > 100 µM (inactive) | 13.5 µM (inactive) | > 100 µM (inactive)
9 | CC[C@H](NC1=C(Cl)C(=O)c2c(O)ccc(O)c2C1=O)C(=O)OC |  | > 10 µM (inactive) | > 10 µM (inactive) | > 10 µM (inactive) | > 10 µM (inactive) | 3.72 µM (inactive) | 3.94 µM (inactive) | 3.26 µM (inactive) | 2.6 µM (inactive) | > 10 µM (inactive) | 7.71 µM (inactive) | 4.13 µM (inactive) | > 10 µM (inactive) | > 10 µM (inactive) | > 10 µM (inactive) | > 10 µM (inactive) |  | 4.63 µM (inactive) | 3.79 µM (inactive) | 
10 | N#CC1CCN2N=C(c3ccccc3)SC12c1ccccc1 (configuration not stated) |  | 23.7 µM (inactive) | 43 µM (inactive) | 18.8 µM (inactive) | 48.6 µM (inactive) | 45.6 µM (inactive) | 31.1 µM (inactive) | 61.4 µM (inactive) | 17.5 µM (inactive) | 32 µM (inactive) | 76.7 µM (inactive) | > 100 µM (inactive) | > 100 µM (inactive) | > 100 µM (inactive) | > 100 µM (inactive) | 4.91 µM (inactive) | 35.1 µM (inactive) | 76.6 µM (inactive) | 32.9 µM (inactive) | 24.5 µM (inactive)
11 | O=S(=O)(O)c1ccc(/N=N/c2ccc(/N=N/c3c(O)ccc4ccccc34)cc2)cc1 |  | > 100 µM (inactive) | > 100 µM (inactive) | > 100 µM (inactive) | 98.6 µM (inactive) | > 100 µM (inactive) | > 100 µM (inactive) | > 100 µM (inactive) | > 100 µM (inactive) | > 94.2 µM (inactive) | > 100 µM (inactive) | > 100 µM (inactive) | > 100 µM (inactive) | > 100 µM (inactive) | > 100 µM (inactive) | > 100 µM (inactive) | > 100 µM (inactive) | > 100 µM (inactive) | 0.893 µM (active) | 97.9 µM (inactive)
12 | COC(=O)c1sc2ncc3c(c2c1N)CC(C)CC3 (configuration not stated) | > 100 µM (inactive) | > 100 µM (inactive) | > 100 µM (inactive) | > 100 µM (inactive) | > 100 µM (inactive) | > 100 µM (inactive) | > 100 µM (inactive) | > 100 µM (inactive) | > 100 µM (inactive) | > 100 µM (inactive) | > 100 µM (inactive) | > 100 µM (inactive) | > 100 µM (inactive) | > 100 µM (inactive) | 41.4 µM (inactive) | > 100 µM (inactive) | > 100 µM (inactive) |  |  | > 100 µM (inactive)
13 | CCOC(=O)C(C(=O)COC(C)(C)C)[C@@H]1C=C[C@H](OC(C)=O)C1 (some centres not stated) | > 100 µM (inactive) | > 100 µM (inactive) | > 100 µM (inactive) | > 100 µM (inactive) | > 100 µM (inactive) | > 100 µM (inactive) | > 100 µM (inactive) | > 100 µM (inactive) | 65.2 µM (inactive) | > 100 µM (inactive) | > 100 µM (inactive) | > 100 µM (inactive) | > 100 µM (inactive) | > 100 µM (inactive) | > 100 µM (inactive) | > 100 µM (inactive) | > 100 µM (inactive) |  |  | > 100 µM (inactive)
14 | O=S(=O)(Nc1nc2ccccc2nc1N1CCCCCC1)c1ccccc1 |  | 24.7 µM (inactive) | 19 µM (inactive) | 24.5 µM (inactive) | 15.8 µM (inactive) | 22.5 µM (inactive) | 28.6 µM (inactive) | 23 µM (inactive) | 16.4 µM (inactive) | 19.1 µM (inactive) | 4.05 µM (inactive) | 37.7 µM (inactive) | 28.2 µM (inactive) | 28.2 µM (inactive) | 21 µM (inactive) | 18.4 µM (inactive) | 12.4 µM (inactive) | 29 µM (inactive) | 23.2 µM (inactive) | > 100 µM (inactive)
15 | N=C(N)n1nc2c(c1O)CCC2 |  | > 100 µM (inactive) | > 100 µM (inactive) |  |  | > 100 µM (inactive) | > 100 µM (inactive) | > 100 µM (inactive) |  | > 100 µM (inactive) | > 100 µM (inactive) | > 100 µM (inactive) | > 100 µM (inactive) | > 100 µM (inactive) | > 100 µM (inactive) | > 100 µM (inactive) | > 100 µM (inactive) | > 100 µM (inactive) | > 100 µM (inactive) | 
